The text below walks through data of patent publication US20050181385A1, “Synthetic lethal screen using RNA interference” (priority 2003, published 2005).

Broadly, the IC50 is the concentration that gives 50% inhibition. A low value points to inhibition by little substance. Broadly, the EC25 is the concentration needed for an effect of 25%. As usually defined, the EC10 is the point of the concentration-response curve where the effect stands at 10%. As usually defined, the EC50 is the concentration at which the effect is half-maximal.

Where “and” joins values, the source holds several entries; their conditions need not be identical. Identical values can stand only once. Where only a bound is given, the exact number is not on record here.

Assay type in all cases: cell-based, human
For one experiment, the system named is TP53-negative A549 cells. The experiment is described as follows: Alamar Blue cell growth, cisplatin after siRNA supertransfection, TP53-negative cells (FIG. 20). Here is the method: A549 cells stably transfected with empty vector (pRS, left panel) or an shRNA targeting TP53 (pRS-TP53, right panel) were supertransfected with siRNAs to luciferase, BRCA1, or BRCA2 prior to treatment with the DNA damaging agent, cisplatin. Cell growth was measured 72 hrs post-transfection using Alamar Blue.
The cell lines used in this example were HeLa cells, TP53-positive A549 cells and TP53-negative A549 cells. The matched pair of TP53 positive and negative cells were generated by stable transfection of short hairpin RNAs (shRNAs) targeting TP53 (monthly highlt highlight, November 2003). […]
After 4 hours, 100 microliter/well of DMEM/10% fetal bovine serum with or without DNA damage agents was added to each well to reach the final concentration of each agents as described above. […] Samples from the 6-well plates were analyzed for cell cycle profiles and samples from 96-well plates were analyzed for cell growth with Alamar Blue assay.
For Alamar Blue assay, the media from the 96-well plates was removed, and 100 uL/well complete media containing 10% (vol/vol) alamarBlue reagent (BioSource International, Inc) and 1/100th volume 1M Hepes buffer tissue culture reagent was added. The plates were then incubated 1-4 hours at 37° C. and fluorescence was measured by exciting at 544 nm and detecting emission at 590 nm with […]ax Gemini-Xs Spectrofluorometer (Molceular Devices). […]
On the technique in general: Resazurin is reduced to fluorescent resorufin, in cell work by metabolically active cells.

The next experiment relates to HeLa cells. The experiment can be described thus: siRNA library screen for sensitization to Cisplatin (Alamar Blue growth). As for the experimental part: The primary screen with each agent was performed in HeLa cells, which are TP53 deficient. HeLa cells were transfected with siRNA pools, and the drugs were added 4 hrs later. […] The growth of cells +/−drug was assessed at 72 hrs post-transfection.
siRNA transfection was carried out as follows: one day prior to transfection, 50 microliters of a chosen cell line, e.g., cervical cancer HeLa cells (ATCC, Cat. No. CCL-2), grown in DMEM/10% fetal bovine serum (Invitrogen, Carlsbad, Calif.) to approximately 90% confluency were seeded in a 384-well tissue culture plate at 450 cells/well. For each transfection 20 microliters of OptiMEM (Invitrogen) was mixed with 2 microliter of siRNA (Dharmacon, Lafayette, Colo.) from a 10 micromolar stock. For each transfection, a ratio of 20 microliter of OptiMEM was mixed with 1 microliter of Oligofectamine reagent (Invitrogen) and incubated 5 minutes at room temperature. Then 20-microliter OptiMEM/Oligofectamine mixture was dispensed into each well of the 96 well plate with the OptiMEM/siRNA mixture, mixed and incubated 15-20 minutes at room temperature.
The internal environment of the proliferating cell is more reduced than that of non-proliferating cells.

Experiment [1] has as its system TP53 mRNA. The experiment is described as follows: TP53 mRNA silencing in A549 cells stably transfected with pRS-p53. The note with it: stable A549 pRS-p53 cells versus pRS cells. As for the experimental part: (§1) Next, supertransfection of the CHEK1 siRNA pool into cells stably expressing TP53 shRNAs was evaluated to determine if it could be used to investigate genetic interactions (SL) between these molecules. Matched cell lines +/−TP53 expression were generated by selecting stable clones of A549 lung cancer cell lines containing either empty pRS vector or pRS-p53. […] Both cell lines were then supertransfected with either control luciferase siRNA (luc, 100 nM) or the CHEK1 siRNA pool (100 nM total; 33 nM each of 3 siRNAs) and their cell cycle profiles examined with or without exposure to the DNA damaging agent, doxorubicin (Dox, FIG. 5). Cell cycle profiles of pRS-p53 cells were not appreciably different from those of pRS cells in the absence of Dox.
as §1, with “molecules. […]” for “molecules.”, “Cell cycle profiles of pRS-p53 cells were not appreciably different from those of pRS cells in the absence of Dox.” left out

Another experiment relates to CHEK1 and TP53 mRNA. The experiment can be described thus: Competition between stable TP53 shRNA and CHEK1 siRNA pool, TaqMan (FIG. 4A). The conditions noted are these: HCT116 clone A11, siRNA pool 100 nM, 24 hours. Here is the method: A pool of three siRNAs targeting CHEK1 was transiently transfected into WT and pRS-p53 stably transfected HCT116 cells (clone A11). CHEK1 and TP53 mRNA levels were measured by Taqman analysis (left and right panels, respectively). […] STK6 and KNSL1 siRNAs were transiently co-transfected into WT SW480 cells and KNSL1 siRNAs were supertransfected into pRS-STK6 stably transfected SW480 cells. STK6 mRNA levels were measured by Taqman analysis. For the left set of bars, STK6 siRNA (10 nM) was used alone or together with one of three different individual KNSL1 siRNAs (10 nM each). […]
To test whether TP53 silencing in HCT116 clone A11 was subject to competition with siRNAs, cells of this clone were supertransfected with a pool of CHEK1-specific siRNAs. […] RNA was harvested 24 hours post transfection and knockdown was assessed by TaqMan analysis using the CHK1 or TP53 and hGUS Pre-Developed Assay Reagent (Applied Biosystems). […] This is in contrast to the observation that two different siRNAs targeting distinct mRNAs compete with each other when transfected together, effectively decreasing the efficacy of one or both of the siRNAs used. pRS and pRS-p53 HCT116 cells were transiently transfected with siRNA pools for ˜800 genes (see Example 3, infra) and measured effects on cellular growth by Alamar Blue assay. […]
(In general: In qPCR the cycle at which signal appears reflects the starting amount.)

The test system of experiment [2] is TP53 mRNA. The experiment is described as follows: TP53 knockdown by TaqMan, pRS-p53 shRNA in HCT116 cells. The source says:
In another specific embodiment, the invention provides a method for determining synthetic lethality between p53 and CHEK1. Stable clones having p53 gene silenced was generated. The pRS-TP53 1026 shRNA plasmid was deconvoluted from a library plasmid pool for TP53 by transforming bacteria with the pool and looking for clones containing only the plasmid of interest. The sequences used are as follows: pRS-p53 1026 19mer sequence: […] (SEQ ID NO:43); primers for sequence specific PCR: Forward: […] (SEQ ID NO:44), Reverse: […] (SEQ ID NO:45). Plasmids were identified by sequence specific PCR, and confirmed by sequencing. Stable p53-clones were generated by transfecting HCT116 cells using FuGENE 6 (Roche) with the pRS-TP53 1026 plasmid. Cells were split into 10 cm dishes plus 1 ug/ml puromycin 48 hours later, and maintained until colonies were evident (5-7 days). Clones were picked into a 96 well plate, maintained in 1 ug/ml puromycin, and tested for knockdown by TaqMan using the TP53 and hGUS Pre-Developed Assay Reagent (Applied Biosystems). To measure transient knockdown by the pRS-TP53 1026 plasmid, HCT116 cells were transfected using Lipofectamine 2000 (Invitrogen), and RNA harvested 24 hours later. TP53 transcript levels were assessed by TaqMan. […]

Setting [3] is: cisplatin, HeLa cell growth, 72 hrs.

`N.N.[Cl][Pt][Cl]` [cisplatin, cis-Diaminedichloroplatinum] had an IC50 in the experiment on TP53-negative A549 cells (cells transfected with BRCA1 or BRCA2 siRNAs) of roughly 0.1 nM. In the experiment on TP53-negative A549 cells (cells transfected with control siRNA (luciferase)), the IC50 is roughly 1 nM. The EC25 in the experiment with HeLa cells (400 ng/ml stated to be an <EC25 concentration) was greater than 0.4 µg/mL. Moreover, in the experiment with HeLa cells (setting [3]), the EC10 was roughly 0.1 µg/mL and the EC50 is roughly 0.4 µg/mL.
Regarding GACTCCAGTGGTAATCTAC [pRS-p53], the “TP53 mRNA silencing” value was > 90% and ~90% with TP53 mRNA [1]; greater than 95% with TP53 mRNA [2] (stable clones A5 and A11); roughly 80% in the experiment on TP53 mRNA [2] (transient transfection, 24 hr post transfection). In addition, in the experiment with CHEK1 and TP53 mRNA, the “competitive inhibition of silencing between TP53 shRNA and CHEK1 siRNA pool” value was “does not affect”.
